Measured values as given in patent publication US20130137573A1, “HERBICIDAL COMPOSITIONS COMPRISING, AND METHODS OF USE OF, HERBICIDALLY ACTIVE PYRANDIONES” (priority 2009, published 2013).

What was measured:
Type in all cases: in vivo
[1] = tested on: IR-64 rice; assay: Biological Example 1 (Test 125): damage (phytotoxicity) to flooded transplanted rice; settings: alone or in tested mixtures; A-4 mixtures especially at higher application rates of compound A-4
Description: Rice seeds, variety IR-64 (an indica type of rice), were sown in seed trays. After 7 days the resulting plants were transplanted as 3 groups of 2 plants, into pots containing a standard sandy loam soil saturated with water replicating swampy conditions. […] Leptochloa chinensis (LEFCH) and Echinochloa crus-galli (ECHCG) were sown as 2 separate groups of approx 10-20 seeds into pots 13 days prior to application of the test substances, in the same glasshouse conditions as the rice. Therefore, each pot of weeds contained a group of LEFCH and a separate group of ECHCG. All pots of rice and all pots of weeds were flooded to 2-3 cm water depth the day prior to application of the test substances. Growth stages at time of application were as follows: Rice: from 2 leaves on the main stem up to tillering; ECHCG: from 2 leaves on the main stem up to tillering; LEFCH: 2-3 leaves.
Most of the test substances were used as formulated products. […] Imazosulfuron (a comparator co-herbicide) was applied as a GR0.25 formulation (GR=granule).
Application of the test substances was made by pipetting the required amount of the test solution or the test formulation gently into the flood water of the appropriate pot.
The test plants were then grown on in the same glasshouse conditions, and watered twice daily keeping the flood water at a depth of 2-3 cm. […]

[2] = tested on: IR-64 rice; assay: Biological Example 2 (Test 109): damage to flooded transplanted rice; settings: for IR-64 rice % herbicidal damage: EC050, into flood water, 14 days after application
Description: (§1) Rice seeds, variety IR-64, were sown in seed trays, after 7 days they were transplanted as 3 groups of 2 plants, into pots containing a standard sandy loam soil saturated with water replicating swampy conditions. These were grown on for 9 days in a glasshouse bay (30/20° C. day/night; 18/6 hours light/dark; 75% humidity). Approx 10-20 seeds of Echinochloa crus-galli were sown into pots 13 days prior to application, in the same conditions as the rice. All pots were flooded to 2-3 cm water depth the day prior to application. Growth stages at time of application were: Rice: 2-3 leaves, ECHCG: 2-3 leaves.
(§2) The test solutions were prepared by mixing the appropriate aliquots of the test substance (here, compound A-13 as the EC050 Formulation Example 1 disclosed herein) in de-ionised water to give the desired treatment concentration.
(§3) Application was made by pipetting the required amount of the test solution gently into the flood water of the appropriate pot.
(§4) The test plants were grown on in the same glasshouse conditions, and watered twice daily keeping the flood water at a depth of 2-3 cm.
(§5) A visual assessment of the % herbicidal damage was made 14 days after application (0=no damage to plants, 100=total kill).

[3] = tested on: Echinochloa crus-galli (ECHCG); assay: Biological Example 3 (Test 120): visual herbicidal damage to flooded ECHCG; settings: EC050, 14DAA
Description: as §1, with “Koshihikari,” for “IR-64,”, “clay” for “sandy loam”, “leaves;” for “leaves,”
as §2, §3, §4, §5

[4] = tested on: Arborio rice; assay: Biological Example 4 (Test 110): wet seeded rice (WSR) method, Arborio rice damage; settings: EC050 + 0.2% Adsee, foliar spray, 14 days after application
Excerpt: (§6) Rice seeds varieties IR-64 and Arborio, Echinochloa crus-galli (ECHCG), and Leptochloa chinensis (LEFCH) were sown in seed trays containing a standard sandy loam soil saturated with water replicating swampy conditions. They were sown at intervals to achieve plants at the following growth stages at time of application: IR-64 and Arborio rice: from 3 leaves on the main stem to tillering; ECHCG: at two different leaf stages: 0-0.5 leaf and 2-3 leaf; LEFCH: 3 leaf. Glasshouse bay conditions were 30/20° C. day/night; 18/6 hours light/dark; 75% humidity.
(§7) The test solutions were prepared by mixing the appropriate aliquots of the test substance (here, compound A-13 as EC050 Formulation Example 1) and adjuvant (0.2% Adsee as adjuvant) in de-ionised water to give the desired treatment concentration.
(§8) Application was as a foliar spray, made using a tracksprayer. 3 days after application the trays were flooded to 2-3 cm water depth, and maintained at this level for the duration of the test.
(§9) No. of repetitions: 1 test only.
as §5

[5] = tested on: IR-64 rice; assay: Biological Example 4 (Test 110): wet seeded rice (WSR) method, IR-64 rice damage; settings: for WSR Rice IR-64 % herbicidal damage: EC050 + 0.2% Adsee, foliar spray, 14 days after application
Excerpt: as §6, §7, §8, §9, §5

[6] = tested on: Koshihikari rice; assay: Biological Example 4 (Test 110): transplanted (TPR) method, rice damage; settings: for Transplanted Rice Koshihikari % herbicidal damage: 14 days after application
Description: as §1, with “variety Koshihikari,” for “variety IR-64,”, “bay 30/20°” for “bay (30/20°”, “ECHCG: 4” for “ECHCG: 2-3”, “leaves. The test solutions were prepared by mixing the appropriate aliquots of the test substance (here, compound A-13 as EC050 Formulation Example 1) in de-ionised water to give the desired treatment concentration.” for “leaves.”
as §3, §4, §9, §5

[7] = tested on: Koshihikari rice; assay: Biological Example 3 (Test 120): damage to flooded transplanted rice; settings: for Koshihikari rice % herbicidal damage, Mean of 2 repetitions / Koshihikari rice % herbicidal damage, Repetition A / Koshihikari rice % herbicidal damage, Repetition B / rice phytotoxicity (span of the 2 repetitions): EC050, 14DAA; for rice phytotoxicity (span of the 2 repetitions): Koshihikari
Description: as §1, with “Koshihikari,” for “IR-64,”, “clay” for “sandy loam”, “leaves;” for “leaves,”
as §2, §3, §4, §5

[8] = tested on: Echinochloa colona (ECHCO); assay: Biological Example 4 (Test 110): dry seeded rice (DSR) method, ECHCO damage; settings: for DSR ECHCO 0.5lf % herbicidal damage / DSR ECHCO 3lf % herbicidal damage: EC050 + 0.2% Adsee, foliar spray, 14 days after application; for DSR ECHCO 0.5lf % herbicidal damage: 0.5 leaf stage; for DSR ECHCO 3lf % herbicidal damage: 3 leaf stage
Description: Echinochloa colona (ECHCO) seeds were sown in seed trays containing a standard sandy loam soil. They were sown at intervals to achieve plants at 0-0.5 leaf and 2-3 leaves at the time of application. Irrigation occurred to maintain the soil at moist but not saturated conditions. Glasshouse bay conditions were 30/20° C. day/night; 18/6 hours light/dark; 75% humidity.
as §7
Application was as a foliar spray, made using a tracksprayer.
The test plants were grown on in the same glasshouse conditions, and watered to maintain moist conditions.
as §9, §5

[9] = tested on: Echinochloa crus-galli (ECHCG); assay: Biological Example 4 (Test 110): transplanted (TPR) method, ECHCG damage; settings: EC050 into flood water, ECHCG 4 leaves, 14 days after application
Description: as §1, with “variety Koshihikari,” for “variety IR-64,”, “bay 30/20°” for “bay (30/20°”, “ECHCG: 4” for “ECHCG: 2-3”, “leaves. The test solutions were prepared by mixing the appropriate aliquots of the test substance (here, compound A-13 as EC050 Formulation Example 1) in de-ionised water to give the desired treatment concentration.” for “leaves.”
as §3, §4, §9, §5

CC1(C)OC(C)(C)C(O)=C(c2cc(-c3ccc(Cl)cc3F)ccc2C2CC2)C1=O [compound A-13, 4-(4′-Chloro-4-cyclopropyl-2′-fluorobiphenyl-3-yl)-2,2,6,6-tetramethylpyran-3,5-dione]
phytotoxicity (damage) to IR-64 transplanted flooded rice, in words [1]: very low phytotoxicity | IR-64 rice % herbicidal damage ([2]; 120 g/ha): 5% | IR-64 rice % herbicidal damage ([2]; 240 g/ha): 18% | IR-64 rice % herbicidal damage ([2]; 360 g/ha): 5% | selectivity margin in rice (IR-64 rice vs ECHCG) ([2]; Biological Example 2, 120 g/ha): good selectivity margin | ECHCG % herbicidal damage, Mean of 2 repetitions ([3]; 30 g/ha): 58% | ECHCG % herbicidal damage, Repetition A ([3]; 30 g/ha): 55% | ECHCG % herbicidal damage, Repetition B ([3]; 30 g/ha): 60% | ECHCG % herbicidal damage, Mean of 2 repetitions ([3]; 60 g/ha): 63% | ECHCG % herbicidal damage, Repetition A ([3]; 60 g/ha): 65% | ECHCG % herbicidal damage, Repetition B ([3]; 60 g/ha): 60% | ECHCG % herbicidal damage, Mean of 2 repetitions ([3]; 125 g/ha): 88% | ECHCG % herbicidal damage, Repetition A ([3]; 125 g/ha): 85% | ECHCG % herbicidal damage, Repetition B ([3]; 125 g/ha): 90% | ECHCG control (span of the 2 repetitions) ([3]; 125 g/ha): 85-90% | WSR Rice Arborio % herbicidal damage ([4]; 8 g/ha): 0% | WSR Rice Arborio % herbicidal damage ([4]; 60 g/ha): 0% | WSR Rice Arborio % herbicidal damage ([4]; 125 g/ha): 0% | WSR Rice Arborio % herbicidal damage ([4]; 500 g/ha): 60% | WSR Rice IR-64 % herbicidal damage ([5]; 8 g/ha): 0% | WSR Rice IR-64 % herbicidal damage ([5]; 60 g/ha): 0% | WSR Rice IR-64 % herbicidal damage ([5]; 125 g/ha): 5% | WSR Rice IR-64 % herbicidal damage ([5]; 500 g/ha): 35% | selectivity margin between rice and ECHCG ([5]; Biological Example 4, wet seeded rice, 60 and 125 g/ha): good selectivity margin | Transplanted Rice Koshihikari % herbicidal damage ([6]; 60 g/ha, EC050, into flood water): 15% | Transplanted Rice Koshihikari % herbicidal damage ([6]; 125 g/ha, EC050 into flood water): 20% | Transplanted Rice Koshihikari % herbicidal damage ([6]; 500 g/ha, EC050 into flood water): 60% | selectivity margin between rice and ECHCG ([6]; Biological Example 4, transplanted rice, 125 g/ha): certain selectivity margin | Koshihikari rice % herbicidal damage, Mean of 2 repetitions ([7]; 125 g/ha): 13% | Koshihikari rice % herbicidal damage, Repetition A ([7]; 125 g/ha): 10% | Koshihikari rice % herbicidal damage, Repetition B ([7]; 125 g/ha): 15% | rice phytotoxicity (span of the 2 repetitions) ([7]; 125 g/ha): 10-15% | Koshihikari rice % herbicidal damage, Mean of 2 repetitions ([7]; 250 g/ha): 20% | Koshihikari rice % herbicidal damage, Repetition A ([7]; 250 g/ha): 20% | Koshihikari rice % herbicidal damage, Repetition B ([7]; 250 g/ha): 20% | Koshihikari rice % herbicidal damage, Mean of 2 repetitions ([7]; 500 g/ha): 25% | Koshihikari rice % herbicidal damage, Repetition A ([7]; 500 g/ha): 20% | Koshihikari rice % herbicidal damage, Repetition B ([7]; 500 g/ha): 30% | rice phytotoxicity (span of the 2 repetitions) ([7]; 500 g/ha): 20-30% | selectivity margin for use on rice (Koshihikari vs ECHCG) ([7]; Biological Example 3, 125 g/ha vs 500 g/ha): reasonable selectivity margin | DSR ECHCO 0.5lf % herbicidal damage ([8]; 8 g/ha): 0% | DSR ECHCO 3lf % herbicidal damage ([8]; 8 g/ha): 85% | DSR weed control, in words ([8]; 60 and 125 g/ha, 2 growth stages, 0.5 leaf and 3 leaf, dry seeded rice method): controlled | DSR ECHCO 0.5lf % herbicidal damage ([8]; 60 g/ha): 90% | DSR ECHCO 3lf % herbicidal damage ([8]; 60 g/ha): 100% | DSR ECHCO 0.5lf % herbicidal damage ([8]; 125 g/ha): 90% | DSR ECHCO 3lf % herbicidal damage ([8]; 125 g/ha): 100% | DSR ECHCO 0.5lf % herbicidal damage ([8]; 500 g/ha): 90% | DSR ECHCO 3lf % herbicidal damage ([8]; 500 g/ha): 100% | Transplanted ECHCG % herbicidal damage ([9]; 30 g/ha): 0% | Transplanted ECHCG % herbicidal damage ([9]; 60 g/ha): 20% | Transplanted ECHCG % herbicidal damage ([9]; 125 g/ha): 75% | Transplanted ECHCG % herbicidal damage ([9]; 500 g/ha): 99%
